Entries after “also recorded” stand apart in the source; their conditions may differ.
Columns and labels:
EGF mRNA = assay: qPCR EGF mRNA in HaCaT; assay type: cell-based, Human; settings: SC17-2 20 μg/mL, n = 6
Description: HaCaT cells were treated as above, washed twice with PBS and lysed using Trizol for 5 min, after which 200 μL of chloroform was added and shaken vigorously for 30 s. The cells were centrifuged for 15 min to separate the upper and lower layers (12,500 g, 4 °C). The supernatant was vortexed with an equal amount of isopropanol and left to stand for 10 min, and then centrifuged again under the same conditions to retain only the white precipitate. 500 μL of 75 % ethanol was added and centrifuged (12000 rpm, 4 °C, 10 min) and the operation was repeated twice. Afterwards, DEPC was used for dissolution and the concentration was determined by nanodrop. One-step reverse transcription to DNA was performed using 5 × MIX, after which primers and 2 × MIX were added and placed. qPCR was performed (LightCycler96, F. Hoffmann-La Roche, Swiss).

CD31 = CD31 immunofluorescence of mouse wound sections (angiogenesis); assay type: in vivo; settings: 13 days
Description: Use scissors to remove the tissue around the wound, put the tissue into 4 % paraformaldehyde solution, put the tissue in 4 °C for 24 h, use a tissue embedding machine for embedding, use a rotary slicer to section the tissue, put the section into environmentally friendly dewaxing solution to dewax for 3 times, 10 min each time, then use anhydrous ethanol to treat the section for 3 times, 5 min each time, rinse with distilled water and then repair the section by EDTA antigen repair solution. The slides were then incubated overnight at 4 °C with Anti-CD31 Mouse mAb as primary antibody and at room temperature for 50 min, protected from light, in PBS (pH 7.4), shaken and washed 3 times for 5 min each time on a decolourising shaker. Incubate at room temperature for 10 min. Images were captured using a scanner (Pannoramic MIDI), and graphics were processed using imageJ. The results were calculated as follows: relative staining area of blood vessels = An/average (Ac), An indicates the fluorescence staining area of CD31 obtained from the current sample by ImageJ statistics, […], and Ac is the fluorescence staining area of CD31 of all control samples.
ImageJ was used to quantify the percentage of stained area for Masson and the percentage of fluorescent area for CD31. All data were analysed by GraphPad Prism 9.5 software. Data were expressed as mean ± SEM. Comparisons between multiple groups were performed by using one-way analysis of variance (ANOVA) and Tukey's multiple comparison test. Differences between groups were commonly tested by ANOVA, P < 0.05 was considered statistically significant.

EGFR = EGFR (Homo sapiens, UniProt P00533); assay: Bio-Layer Interferometry (BLI); assay type: binding
Description: Prepare 20 μg/mL of EGFR protein solution (solvent 0.1 % PBS-Tween), and different concentrations of SC17-2 (5, 10, 20 μg/mL) dissolved using PBST. Biotin was added and incubated at room temperature for 30 min according to the instructions, and the corresponding probes were soaked in PBST for 10 min. The assay was carried out according to the BLI predefined procedure (Octet K2, ForteBio, USA), followed by calculations using the accompanying software, and graphpad was used for graphing.

HaCaT cells = assay: In vitro scratch wound healing (migration) assay, HaCaT; assay type: cell-based, Human; settings: SC17-2 concentrations exceeding 10 μg/mL, 16 h
(p-Smad2/3)/(Smad2/3) = assay: Western blot p-Smad2/3 / Smad2/3 in HaCaT; assay type: cell-based, Human; settings: SC17-2 20 μg/mL, 24 h (16 h elsewhere in the source), n = 3
Description: HaCaT was inoculated in 12-well plates (2 × 10^5 cells/well) and cultured for 24 h. Afterwards, HaCaT cells were treated with equal amounts of VEGF, SC17-2, and PBS for 16 h. Cells were washed with PBS, after which the samples were collected and added to 1 mL of RIPA lysate containing protease inhibitors and phosphatase inhibitors and placed on ice for 30 min. Allowed to be after sufficient lysis, the supernatant was centrifuged and collected to determine the protein concentration using a nanodrop, followed by the addition of SDS sampling buffer and heating at 95 °C for 10 min. Samples were loaded and run on a gel block based on the determined sample concentration, and then electrotransferred onto a 0.45 μm PVDF membrane. […] After washing three times with TBST, proteins were visualised and scanned by enhanced chemiluminescence using the ChemiDoc XRS imaging system (Bio-Rad, Hercules, CA, USA).

[1] = system: Transgenic zebrafish Tg (Fli1a:eGFP); assay: Zebrafish VRI-induced vascular insufficiency model (ISV); assay type: in vivo; settings: VRI 300 ng/mL
Description: Transgenic zebrafish Tg (Fli1a:eGFP) were cultured in culture tanks at 28 °C in a 14 h:10 h light/dark cycle for up to 6 months and subsequently made to produce zygotes by mating only, zebrafish larvae at 24 h post fertilisation (hpf) were induced for 3 h with a VEGFR tyrosine kinase inhibitor II (VRI) to produce a model of vascular insufficiency, after which they were washed to abort the effect of VRI was added to the same number of zebrafish of different groups with SC17-2 or equivalent amount of PBS, and images of zebrafish embryos were captured by Leica fluorescence microscopy, and the ISV index was calculated as follows: ISV index = intact blood vessels × 1 + defective blood vessels × 0.5.

[2] = system: Acinetobacter baumannii (ATCC 19606), Candida auris (ATCC 10231), Pseudomonas aeruginosa (ATCC 27853) and Staphylococcus aureus (ATCC 6538); assay: Disk diffusion (paper-disc agar-diffusion) antimicrobial test; assay type: cell-based; settings: SC17-2 10 mg/mL, 1 mL on filter paper, 24 h, 37 °C, b51 statement also rests on the MIC test
Description: Disk diffusion and broth microdilution tests were selected as the standard method for screening the antimicrobial activity of SC17-2 [58]. The experiments were conducted utilising the disk diffusion test, whereby the following strains were examined: Acinetobacter baumannii (ATCC 19606), Candida auris (ATCC 10231), Pseudomonas aeruginosa (ATCC 27853) and Staphylococcus aureus (ATCC 6538). The concentration of bacterial suspension was then adjusted to 1 × 10^5 CFU/mL with saline, after which it was set aside. Separate plates containing bacterial agar were prepared: MH agar was utilised for the isolation of bacterial samples, while Sartorius agar was employed for the isolation of fungal samples. The suspensions containing the aforementioned microorganisms were then spread on the designated plates at a rate of 1:1000. A sterile filter paper was used to dispense 1 mL of SC17-2 (10 mg/mL), with equal amounts of PBS and Vancomycin/Colistin serving as controls. The plates were then subjected to the appropriate temperature (24 h at 37 °C) and subsequently observed under a camera to ascertain the results.

Sequence: SFMPLSIPIMCKMLSKC [SC17-2, peptide of the pleskein family from the skin transcriptome of the frog Nanorana parkeri, made by solid-phase synthesis]
- mRNA expression of EGF (EGF mRNA): significantly elevated
- number of blood vessels in wounds, dose dependence (CD31; CD31 images): number of blood vessels in the wounds increased with the increase of SC17-2 concentration
- blood vessel formation (CD31 staining) (CD31; SC17-2 5 μg/mL, n = 9): promoted blood vessel formation
- proangiogenic effect compared with VEGF (CD31 staining) (CD31; SC17-2 10 and 20 μg/mL, n = 9): more pronounced than that of VEGF
- EGFR binding, dose dependence (EGFR): binds in a dose-dependent manner
- HaCaT migration (HaCaT cells): notable enhancement
- Smad2/3 phosphorylation ((p-Smad2/3)/(Smad2/3)): significantly increased Smad2/3 phosphorylation
- ISVs restored, relative to healthy zebrafish ([1]; SC17-2 20 μg/mL, 24 h, n = 6): 84.18%
- number of ISV, dose dependence ([1]; SC17-2 5, 10, 20 μg/mL, 24 h post-treatment): significant increase in the number of ISV in a dose-dependent manner
- antimicrobial (bacteriostatic) activity [2]: no bacteriostatic activity; also recorded: does not appear to have antimicrobial activity

— article PMC12957798, “Adaptation of plateau frog peptide: From antimicrobial to angiogenic and proliferative functions” (Journal of Advanced Research, 2025)
